Source: patent US20230399612A1, “METHOD FOR THE GENERATION OF NEUROSPHERES” (KUGELMEIERS LTD., priority 2020, published 2023)
Like-named read-outs stand apart in the source and are kept apart here.

System: Hi-Q organoids
Assay: Calcium imaging in sections of Hi-Q brain organoids (Oregon Green BAPTA 1)
Format: cell-based, human
Settings: for calcium signals on addition of the substance: more evident in older than in younger organoids, FIG. 4C-D

NiCl2
effect on the response to GABA (blocker added, calcium signal evoked by GABA): blocked

NS(=O)(=O)c1cccc2c1c([N+](=O)[O-])cc1nc(O)c(O)nc12 [NBQX]
effect on calcium signals evoked by GABA or glutamate (involvement of AMPA receptors) (blocker added): blocked

NCCCC(=O)O [GABA]
response of organoids to added transmitter (calcium imaging) (Day 30 organoids, FIG. 4C): respond | response of organoids to added transmitter (calcium imaging) (Day 40 organoids, FIG. 4D): respond | calcium signals on addition of the substance: spike in calcium signals

NC1=N[C@H](O)[C@H]2[C@H]3O[C@]4(O)O[C@@H]([C@@H](O)[C@@]2(N1)[C@@H]4O)[C@]3(O)CO [TTX, tetrodotoxin]
effect on the response to GABA: not altered | inhibition of sodium channels in the brain organoids, analyzed by calcium imaging: inhibits sodium channels

glutamate
response of organoids to added transmitter (calcium imaging) (Day 30 organoids, FIG. 4C): no response | response of organoids to added transmitter (calcium imaging) (Day 40 organoids, FIG. 4D): respond | calcium signals on addition of the substance: spike in calcium signals
